Tests used:
Type in all cases: in vivo
[1] = tested on: Trialeurodes vaporariorum; experiment: Trial on poinsettia, spray, against neonicotinoid-resistant greenhouse whiteflies (Netherlands); details: 150 g ai/ha/m CH, SL 100, Imidacloprid SL 200
Description: In Zwaagdiyk (Niederlande) wurden Weihnachtssterne, die stark mit bekanntermaßen Neonikotinoyl-resistenten Gewächshaus-Weißen Fliegen (Trialeurodes vaporariorum) infiziert waren, jeweils zwei Mal im Abstand von 7 Tagen mit der Verbindung 1-5 (SL 100, 150 g ai/ha/m CH (g aktive Substanz/ha/m CH, CH = Laubwand-Höhe) bzw. mit Imidacloprid (SL 200, 150 g ai/ha/m CH) besprüht. Zu verschiedenen Zeitpunkten nach der ersten bzw. zweiten Behandlung (DAA = Tage nach 1. Behandlung, DAB = Tage nach zweiter Behandlung) wurde die Wirksamkeit (in % Abbott: Verhältnis der Anzahl Tiere auf behandelter Pflanze / Fläche zur Anzahl Tiere auf Kontrolle) der beiden Substanzen gegen Trialeurodes vaporariorum bestimmt.

[2] = tested on: Nilaparvata lugens; experiment: Field trial on rice plants, spray, against neonicotinoid-resistant brown planthoppers (Thailand); details: 50 g ai/ha/m CH, both SL 100
Description: In Banglane (Thailand) wurden Reispflanzen, die stark mit bekanntermaßen Neonikotinoyl-resistenten Braunrückigen Reiszikaden (Nilaparvata lugens) infiziert waren, jeweils zwei Mal im Abstand von 14 Tagen mit der Verbindung 1-5 (SL 100, 50 g ai/ha/m CH (g aktive Substanz/ha/m CH, CH = Laubwand-Höhe) bzw. mit Imidacloprid (SL 100, 50 g ai/ha/m CH) besprüht. Zu verschiedenen Zeitpunkten nach der ersten bzw. zweiten Behandlung (DAA = Tage nach 1. Behandlung, DAB = Tage nach zweiter Behandlung) wurde die Wirksamkeit (in % Abbott: Verhältnis der Anzahl Tier auf behandelter Pflanze / Fläche zur Anzahl Tiere auf Kontrolle) der beiden Substanzen gegen Nilaparvata lugens bestimmt.

[3] = tested on: Bemisia tabaci ESP-00; experiment: Leaf-dip bioassay, adult whiteflies, multi-resistant strain ESP-00; details: adults; for ESP-00 LC50: multi-resistant strain ESP-00, mortality after 72 h
Description: Es wurden Versuche durchgeführt, um die überlegene Blattwirkung von Enaminocarbonylverbindungen gegen adulte Tiere eines Stamms von Bemisia tabaci zu zeigen, der bekanntermaßen resistent ist gegen Neonikotinoid-Insektizide sowie andere Insektizidklassen, einschließlich Insekten-Wachstumsregulatoren (wie Buprofezin) und Antifeedants (Substanzen, die einen Schaderreger vom Fraß abhalten) (wie Pymetrozin).
Baumwollblattscheiben (30 mm im Durchmesser) wurden für 5 sec in wässrige Lösungen technischer Insektizide, enthaltend 0,2 g/l Triton-X-100 als nicht-ionisches Benetzungsmittel, getaucht. Luftgetrocknete Blattscheiben wurden dann mit der adaxialen Seite nach unten auf ein Agarbett (12 g/l) in einer kleinen Petrischale (40 mm im Durchmesser) gelegt. Adulte Weiße Fliegen wurden mittels eines Vakuum-getriebenen Aspirators aus Aufzuchtkäfigen eingesammelt und 20 adulte Tiere wurden nach kurzer CO2-Narkose auf die Blattscheiben gelegt. Anschließend wurde jede Petrischale mit einem belüfteten Deckel verschlossen und umgedreht aufbewahrt. Nach 72 h wurde die Mortalität der Weißen Fliegen bestimmt. Jedes Insektizid wurde mindestens dreifach mit 2-oder 3-fach Bestimmungen pro Konzentration getestet.
LC50-Werte wurden aus Probit-Regressionen unter Verwendung des Computerprogramms POLO-PC 2 (LeOra Software, Berkeley, USA) berechnet.
Tabelle 1. Log-Dosis Probit Mortalitätsdaten für verschiedene Klassen von Insektiziden erhalten aus Blatt-Tauch-Bioassays gegen adulte Tiere zweier Bemisia tabaci Stämme, SUD-S und ESP-00, die bekanntermaßen Insektizid-empfindlich (SUD-S) bzw. multiresistent (ESP-00) sind (Stumpf und Nauen, 2003). Mortalität wurde nach 72 h bestimmt, mit Ausnahme von Buprofezin (10-12 d).

[4] = tested on: Nymphen von Bemisia tabaci; experiment: Field trial on aubergine plants, drench, against nymphs of neonicotinoid-resistant whiteflies (Almeria); details: drenched 3x, 150 g ai/ha/m CH, I-5 SL 300, Imidacloprid SL 200
Description: In Almeria (Südspanien) wurden Auberginenpflanzen, die stark mit Nymphen von bekanntermaßen Neonikotinoyl-resistenten weißen Fliegen (Bemisia tabaci) infiziert waren, jeweils drei Mal im Abstand von 9 und 12 Tagen mit der Verbindung I-5 (SL 300, 150 g ai/ha/m CH (g aktive Substanz/ha/m CH, CH = Laubwand-Höhe) bzw. mit Imidacloprid (SL 200, 150 g ai/ha/m CH) gegossen. Zu verschiedenen Zeitpunkten nach der dritten Behandlung (DAC = Tage nach 3. Behandlung) wurde die Wirksamkeit (in % Abbott: Verhältnis der Anzahl Nymphen auf behandelter Pflanze / Fläche zur Anzahl Nymphen auf Kontrolle) der beiden Substanzen gegen Nymphen von Bemisia tabaci in bestimmt.

[5] = tested on: Nilaparvata lugens Vietnam; experiment: Spray test on infested rice seedlings (standard screening), resistant strain Vietnam; details: rice seedlings sprayed, evaluation 7 days after infection
Description: (§1) Reissetzlinge wurden mit Stämmen von Nilaparvata lugens (Bayer S und Vietnam) infiziert und mit der Verbindung I-5 bzw. mit Imidacloprid besprüht. Die Auswertung erfolgte 7 Tage nach Infektion (Standard-Screening-Verfahren).

[6] = tested on: Nymphen von Bemisia tabaci; experiment: Field trial on cotton plants, spray, against nymphs of neonicotinoid-resistant whiteflies (Brenes); details: sprayed 2x, 150 g ai/ha/m CH, I-5 SL 100, Imidacloprid SL 200
Description: In Brenes (Spanien) wurden Baumwollpflanzen, die stark mit Nymphen von bekanntermaßen Neonikotinoyl-resistenten Weißen Fliegen (Bemisia tabaci) infiziert waren, jeweils zwei Mal im Abstand von 13 Tagen mit der Verbindung I-5 (SL 100, 150 g ai/ha/m CH (g aktive Substanz/ha/m CH, CH = Laubwand-Höhe) bzw. mit Imidacloprid (SL 200, 150 g ai/ha/m CH) besprüht. Zu verschiedenen Zeitpunkten nach der ersten bzw. zweiten Behandlung (DAA = Tage nach 1. Behandlung, DAB = Tage nach zweiter Behandlung) wurde die Wirksamkeit (in % Abbott: Verhältnis der Anzahl Nymphen auf behandelter Pflanze / Fläche zur Anzahl Nymphen auf Kontrolle) der beiden Substanzen gegen Nymphen von Bemisia tabaci in bestimmt.

[7] = tested on: Nilaparvata lugens Bayer S; experiment: Spray test on infested rice seedlings (standard screening), susceptible strain Bayer S; details: rice seedlings sprayed, evaluation 7 days after infection
Description: as §1

[8] = tested on: Nymphen von Bemisia tabaci; experiment: Field trial on pepper plants, spray, against nymphs of neonicotinoid-resistant whiteflies (Almeria); details: sprayed 3x, 150 g ai/ha/m CH, I-5 SL 200, Imidacloprid OD 200
Description: In Almeria (Südspanien) wurden Paprikapflanzen, die sehr stark mit Nymphen von bekanntermaßen Neonikotinoyl-resistenten Weißen Fliegen (Bemisia tabaci) infiziert waren, jeweils drei Mal im Abstand von 9 und 12 Tagen mit der Verbindung I-5 (SL 200, 150 g ai/ha/m CH (g aktive Substanz/ha/m CH, CH = Laubwand-Höhe) bzw. mit Imidacloprid (OD 200, 150 g ai/ha/m CH) besprüht. Zu verschiedenen Zeitpunkten nach der dritten Behandlung (DAC = Tage nach 3. Behandlung) wurde die Wirksamkeit (in % Abbott: Verhältnis der Anzahl Nymphen auf behandelter Pflanze / Fläche zur Anzahl Nymphen auf Kontrolle) der beiden Substanzen gegen Nymphen von Bemisia tabaci in bestimmt.

[9] = 7 DAC (days after 3rd treatment)

SMILES	Effizienz ([1]; 7 DAA, sprayed)	Effizienz ([1]; 7 DAB, sprayed 2x)	Effizienz ([1]; 14 DAB, sprayed 2x)	Effizienz ([1]; 21 DAB, sprayed 2x)	Effizienz ([1]; 29 DAB, sprayed 2x)	Effizienz ([2]; 1 DAA, sprayed)	Effizienz ([2]; 3 DAA, sprayed)	Effizienz ([2]; 5 DAA, sprayed)	Effizienz ([2]; 7 DAA, sprayed)	Effizienz ([2]; 7 DAB, sprayed 2x)	Effizienz ([2]; 14 DAA, sprayed)	Effizienz ([2]; 14 DAB, sprayed 2x)	ESP-00 LC50 [3] [ppm]	Effizienz ([4]; 7 DAC)	Effizienz ([4]; 14 DAC)	Effizienz ([4]; 21 DAC)	Vietnam (resistenter Stamm) LC50 [5]	Effizienz ([6]; 13 DAB)	Effizienz ([6]; 15 DAB)	Effizienz ([6]; 25 DAB)	other results
O=[N+]([O-])NC1=NCCN1Cc1ccc(Cl)nc1 [Imidacloprid]	11,4 % Abbott	9,9 % Abbott	0 % Abbott	3,7 % Abbott	18,6 % Abbott	19,6 % Abbott	24,9 % Abbott	36,5 % Abbott	26,6 % Abbott	19,8 % Abbott	17,8 % Abbott	26,4 % Abbott	300	41 % Abbott	50,7 % Abbott	21 % Abbott	13 g/ha	60 % Abbott	56,9 % Abbott	42,1 % Abbott	Effizienz ([6]; 36 DAB): 24,3 % Abbott; Bayer S (empfindlicher Stamm) LC50 [7]: 0,0049 g/ha; Effizienz [8, 9]: 76,7 % Abbott; Effizienz ([8]; 14 DAC): 75,3 % Abbott; Effizienz ([8]; 21 DAC): 75,1 % Abbott; Effizienz ([8]; 28 DAC): 1,3 % Abbott
O=C1C=C(N(Cc2ccc(Cl)nc2)CC(F)F)CO1 [Verbindung I-5, 4-{[(6-Chlorpyrid-3-yl)methyl](2,2-difluorethyl)amino}furan-2(5H)-on]	23 % Abbott	50,9 % Abbott	39,1 % Abbott	62,2 % Abbott	50,9 % Abbott	19 % Abbott	39 % Abbott	66,8 % Abbott	70,3 % Abbott	69,5 % Abbott	65,7 % Abbott	55,9 % Abbott	36	79,1 % Abbott	63,7 % Abbott	66,8 % Abbott	3,2 g/ha	78,9 % Abbott	63,5 % Abbott	77,8 % Abbott	Resistenz / Kreuz-resistenz von adulten B. tabaci Tieren des Stamms ESP-00 im Vergleich zu SUD-S ([3]; leaf-dip, result in words): nur geringfügige Kreuz-resistenz; Effizienz ([6]; 36 DAB): 70,8 % Abbott; Bayer S (empfindlicher Stamm) LC50 [7]: 0,36 g/ha; Effizienz [8, 9]: 99,2 % Abbott; Effizienz ([8]; 14 DAC): 98,5 % Abbott; Effizienz ([8]; 21 DAC): 97,4 % Abbott; Effizienz ([8]; 28 DAC): 84,3 % Abbott
